Laboratory results as given in patent US6841519B1, “Isoxazoline derivatives and herbicides containing the same as the active ingredient” (Kumiai Chemical Industry Co., Ltd., priority 1999, dated 2005).

Assays:
Assay type in all cases: in vivo
[1] = test system: Echinochloa oryzicola Vasing. (Eo); assay: Test for herbicidal effect by paddy field soil treatment (Test Example 1); settings: application amount (active ingredient) 100 g/10 a, examined at the 21st day from the treatment, index per Table 40
Description: <Test Example 1> Test For Herbicidal Effect By Paddy Field Soil Treatment A paddy field soil was filled in a plastic pot of 100 cm^2 and subjected to puddling. Then, seeds of Echinochloa oryzicola Vasing. (Eo) were sowed and water was filled in a depth of 3 cm. Next day, wettable powders produced in accordance with the Formulation 1 were diluted with water and dropped on the water surface. The application amount of each wettable powder was 100 g per 10 ares in terms of the active ingredient. Then, breeding was made in a greenhouse, and the herbicidal effect of each wettable powder was examined at the 21st day from the treatment in accordance with the standard shown in Table 40. [table]

[2] = test system: Echinochloa crus-galli (L.) Beauv. var. crusgall (Ec); assay: Test for herbicidal effect by upland field soil treatment (Test Example 2), Ec
Description: (§1) [table] <Test Example 2> Test For Herbicidal Effect By Upland Field Soil Treatment An upland field soil was filed in a plastic pot of 80 cm^2. Seeds of Echinochloa crus-galli (L.) Beauv. var. crusgall (Ec) and Setaria viridis (L.) Beauv. (Se) were sowed, followed by covering with the same soil. Wettable powders produced in accordance with the Formulation 1 were diluted with water and sprayed uniformly: on the soil surface using a small sprayer, in an amount of 100 liters per 10 ares so that the amount of each active ingredient became 100 g per 10 ares. Then, breeding was made in a greenhouse, and the herbicidal effect of each wettable powder was examined at the 21st day from the treatment in accordance with the standard shown in Table 40.

[3] = test system: Setaria viridis (L.) Beauv. (Se); assay: Test for herbicidal effect by upland field soil treatment (Test Example 2), Se
Description: as §1

[4] = application amount (active ingredient) 100 g/10 a, examined at the 21st day from the treatment, index per Table 40
[5] = 100 g/10 a active ingredient, examined at 21st day

Row | Compound | Herbicidal effect to Eo [1] | Herbicidal effect to Ec [2, 4] | Herbicidal effect to Se [3, 4] | Herbicidal effect to Ec [2, 5] | Herbicidal effect to Se [3, 5]
1 | O=S(=O)(Cc1c(F)cccc1F)C1=NOCC1 [Compound 1-533] | 5 (A herbicidal effect or phytotoxicity of 90% or more) |  |  |  | 
2 | CCC1(C)CC(S(=O)(=O)Cc2ccc(F)cc2)=NO1 (centres unmarked) [Compound 1-191] | 5 (A herbicidal effect or phytotoxicity of 90% or more) | 5 (A herbicidal effect or phytotoxicity of 90% or more) | 5 (A herbicidal effect or phytotoxicity of 90% or more) |  | 
3 | CCOC(=O)c1cccc(Cl)c1CS(=O)(=O)C1=NOC(C)(C)C1 [Compound 1-619] | 5 (A herbicidal effect or phytotoxicity of 90% or more) |  |  | 5 (A herbicidal effect or phytotoxicity of 90% or more) | 4 (A herbicidal effect or phytotoxicity of 70% to less than 90%)
4 | CC1(C)CC(S(=O)(=O)Cc2cccc(F)c2)=NO1 [Compound 1-33] | 5 (A herbicidal effect or phytotoxicity of 90% or more) | 5 (A herbicidal effect or phytotoxicity of 90% or more) | 5 (A herbicidal effect or phytotoxicity of 90% or more) |  | 
5 | CC1(C)CC(S(=O)(=O)Cc2ccc(F)cc2)=NO1 [Compound 1-34] | 5 (A herbicidal effect or phytotoxicity of 90% or more) | 5 (A herbicidal effect or phytotoxicity of 90% or more) | 5 (A herbicidal effect or phytotoxicity of 90% or more) |  | 
6 | CC12CCCCC1C(S(=O)(=O)Cc1c(F)cccc1F)=NO2 (centres unmarked) [Compound 1-493] | 5 (A herbicidal effect or phytotoxicity of 90% or more) | 5 (A herbicidal effect or phytotoxicity of 90% or more) | 4 (A herbicidal effect or phytotoxicity of 70% to less than 90%) |  | 
7 | COCC1(C)CC([S+]([O-])Cc2c(F)cccc2F)=NO1 (centres unmarked) [Compound 1-396] | 5 (A herbicidal effect or phytotoxicity of 90% or more) | 4 (A herbicidal effect or phytotoxicity of 70% to less than 90%) | 5 (A herbicidal effect or phytotoxicity of 90% or more) |  | 
8 | CC1(C)CC(S(=O)(=O)Cc2ccc(F)cc2C(F)(F)F)=NO1 [Compound 1-551] | 5 (A herbicidal effect or phytotoxicity of 90% or more) |  |  | 5 (A herbicidal effect or phytotoxicity of 90% or more) | 5 (A herbicidal effect or phytotoxicity of 90% or more)
9 | CS(=O)(=O)C1=NOC2(CC2)C1 [Compound 2-28] | 5 (A herbicidal effect or phytotoxicity of 90% or more) |  |  |  | 
10 | C#CCOC(=O)c1ccccc1CS(=O)(=O)C1=NOC(C)(C)C1 [Compound 1-600] | 5 (A herbicidal effect or phytotoxicity of 90% or more) |  |  | 5 (A herbicidal effect or phytotoxicity of 90% or more) | 
11 | O=S(=O)(Cc1c(F)cccc1F)C1=NOC2CCCCC12 (centres unmarked) [Compound 1-387] | 5 (A herbicidal effect or phytotoxicity of 90% or more) | 5 (A herbicidal effect or phytotoxicity of 90% or more) | 4 (A herbicidal effect or phytotoxicity of 70% to less than 90%) |  | 
12 | CCC1(C)CC(S(=O)(=O)Cc2c(C)ccc(C)c2C)=NO1 (centres unmarked) [Compound 1-617] | 5 (A herbicidal effect or phytotoxicity of 90% or more) |  |  | 5 (A herbicidal effect or phytotoxicity of 90% or more) | 5 (A herbicidal effect or phytotoxicity of 90% or more)
13 | O=S(=O)(Cc1c(F)cccc1F)C1=NOC2CCCCCC12 (centres unmarked) [Compound 1-388] | 5 (A herbicidal effect or phytotoxicity of 90% or more) | 5 (A herbicidal effect or phytotoxicity of 90% or more) | 5 (A herbicidal effect or phytotoxicity of 90% or more) |  | 
14 | CCC1(C)CC(S(=O)(=O)Cc2ccccc2F)=NO1 (centres unmarked) [Compound 1-189] | 5 (A herbicidal effect or phytotoxicity of 90% or more) | 5 (A herbicidal effect or phytotoxicity of 90% or more) | 5 (A herbicidal effect or phytotoxicity of 90% or more) |  | 
15 | CCC1(C)CC(S(=O)(=O)Cc2ccc(C#N)cc2)=NO1 (centres unmarked) [Compound 1-329] | 5 (A herbicidal effect or phytotoxicity of 90% or more) | 5 (A herbicidal effect or phytotoxicity of 90% or more) | 5 (A herbicidal effect or phytotoxicity of 90% or more) |  | 
16 | CCC1(C)CC(S(=O)(=O)Cc2ccccc2Br)=NO1 (centres unmarked) [Compound 1-195] | 5 (A herbicidal effect or phytotoxicity of 90% or more) | 5 (A herbicidal effect or phytotoxicity of 90% or more) | 5 (A herbicidal effect or phytotoxicity of 90% or more) |  | 
17 | COc1ccc(CS(=O)(=O)C2=NOC(C)(C)C2)cc1 [Compound 1-42] | 5 (A herbicidal effect or phytotoxicity of 90% or more) | 5 (A herbicidal effect or phytotoxicity of 90% or more) | 4 (A herbicidal effect or phytotoxicity of 70% to less than 90%) |  | 
18 | COC(=O)c1cccc(Cl)c1CS(=O)(=O)C1=NOC(C)(C)C1 [Compound 1-618] | 5 (A herbicidal effect or phytotoxicity of 90% or more) |  |  | 5 (A herbicidal effect or phytotoxicity of 90% or more) | 5 (A herbicidal effect or phytotoxicity of 90% or more)
19 | CC1(C)CC(S(=O)(=O)Cc2cc([N+](=O)[O-])cc([N+](=O)[O-])c2)=NO1 [Compound 1-546] | 5 (A herbicidal effect or phytotoxicity of 90% or more) |  |  | 5 (A herbicidal effect or phytotoxicity of 90% or more) | 4 (A herbicidal effect or phytotoxicity of 70% to less than 90%)
20 | CC(C)OC(=O)c1cccc(Cl)c1CS(=O)(=O)C1=NOC(C)(C)C1 [Compound 1-621] | 5 (A herbicidal effect or phytotoxicity of 90% or more) |  |  | 5 (A herbicidal effect or phytotoxicity of 90% or more) | 4 (A herbicidal effect or phytotoxicity of 70% to less than 90%)
21 | Fc1cccc(F)c1CSC1=NOC2(CCC2)C1 [Compound 1-381] | 5 (A herbicidal effect or phytotoxicity of 90% or more) | 4 (A herbicidal effect or phytotoxicity of 70% to less than 90%) | 4 (A herbicidal effect or phytotoxicity of 70% to less than 90%) |  | 
22 | COc1cccc(CS(=O)(=O)C2=NOC(C)(C)C2)c1 [Compound 1-41] | 5 (A herbicidal effect or phytotoxicity of 90% or more) | 5 (A herbicidal effect or phytotoxicity of 90% or more) | 5 (A herbicidal effect or phytotoxicity of 90% or more) |  | 
23 | CC(c1ccccc1C(F)(F)F)S(=O)(=O)C1=NOC(C)(C)C1 (centres unmarked) [Compound 1-575] | 5 (A herbicidal effect or phytotoxicity of 90% or more) |  |  |  | 
24 | CCC1(C)CC(S(=O)(=O)Cc2ccc(Cl)cc2)=NO1 (centres unmarked) [Compound 1-194] | 5 (A herbicidal effect or phytotoxicity of 90% or more) | 5 (A herbicidal effect or phytotoxicity of 90% or more) | 5 (A herbicidal effect or phytotoxicity of 90% or more) |  | 
